The text below walks through data of patent US6495604B1, “Cycloalkene derivatives, process for producing the same, and use” (Takeda Chemical Industries, Ltd., priority 1998, dated 2002).

The IC50 is the concentration at which inhibition is half-maximal.

One assay concerns NO production by RAW264.7 cell. As to the kind of experiment: NO production-inhibiting effect in RAW264.7 cells (nitrite ion by DAN fluorescence). The assay is classed as cell-based, mouse. As to conditions: Mus musculus, RAW264.7, RAW264.7; LPS 5 ng/ml + interferon gamma 1 U/ml; nitrite ion in culture supernatant after overnight incubation. How it is done:
Mouse macrophage cell line RAW264.7 was used as an iNOS-inducible cell and a test compound was examined for its % inhibition of NO production. The test compound was dissolved at 10 mM in N,N-dimethylformamide and diluted with an RPMI-1640 medium at the concentration of 0.1 mM. The concentration was further adjusted using the medium so that a final concentration ranging from 10 μM to 10 nM could be obtained by a 10-fold serial dilution and the test compound was added to a culture medium. On the day before the experiment, the cell was adjusted at 5×10^5/ml in an RPMI-1640 medium supplemented with 10% inactivated fetal calf serum and inoculated to a 96-well microplate at 1×10^5 cells/0.2 ml per well. After incubating at 37° C. under an atmosphere of 5% CO2/95% air overnight, the test compound adjusted as described above was added and then LPS and interferon gamma were added at the final concentrations of 5 ng/ml and 1 U/ml, respectively. After further incubating overnight, culture supernatants were examined for the concentration of nitrite ion (stable metabolite of NO) which was used as an index for the NO production. The nitrite ion concentration was determined by adding 25 μl of 20 μg/ml of 2,3-diaminonaphthalene (DAN) to 50 μl of the culture supernatant, followed by incubating at room temperature for 10 minutes, followed by adding 25 μl of 0.5 N NaOH, followed by determining a fluorescence at 450 nm (excitation wavelength: 365 nm). An IC50 represents the concentration of the test compound which inhibits 50% of the NO production.
For `CCOC(=O)C1=CCCCC1S(=O)(=O)Nc1cccc(Cl)c1Cl` (centres unmarked) [Compound 38, ethyl 6-[N-(2,3-dichlorophenyl)sulfamoyl]-1-cyclohexene-1-carboxylate], the IC50 turned out to be 0.041 µM. Same read-out and setting: the result for `CCOC(=O)C1=CCCCC1S(=O)(=O)Nc1ccc(-n2nccn2)cc1` (centres unmarked) [Compound 40, ethyl 6-[N-[4-(2H-1,2,3-triazol-2-yl)phenyl)sulfamoyl]-1-cyclohexene-1-carboxylate] reads 2.5 µM.

In the case of `CCOC(=O)C1=CCCCC1S(=O)(=O)Nc1cc(Cl)ccc1Cl` (centres unmarked) [Compound 41, ethyl 6-[N-(2,5-dichlorophenyl)sulfamoyl]-1-cyclohexene-1-carboxylate], the IC50 was 0.24 µM. Still for that read-out and setting: the result for `CCOC(=O)C1=CCCCC1S(=O)(=O)Nc1ccccc1OC(F)(F)F` (centres unmarked) [Compound 42, ethyl 6-[N-(2-trifluoromethoxyphenyl)sulfamoyl]-1-cyclohexene-1-carboxylate] reads 1.1 µM.

For `CCOC(=O)C1=CCCCC1S(=O)(=O)Nc1cc(F)c(F)cc1F` (centres unmarked) [Compound 43, ethyl 6-[N-(2,4,5-trifluorophenyl)sulfamoyl]-1-cyclohexene-1-carboxylate], the IC50 came out at 0.073 µM. The same measure, in the same setting: the result for `CCOC(=O)C1=CCCCC1S(=O)(=O)Nc1ccc(-n2ncnn2)cc1` (centres unmarked) [Compound 44, ethyl 6-[N-[4-(2H-tetrazol-2-yl)phenyl)sulfamoyl]-1-cyclohexene-1-carboxylate] reads 3.7 µM. Same read-out and setting: the result for `CCOC(=O)C1=CCCCC1S(=O)(=O)Nc1ccc(C)cc1Cl` (centres unmarked) [Compound 45, ethyl 6-[N-(2-chloro-4-methylphenyl)sulfamoyl]-1-cyclohexene-1-carboxylate] reads 0.027 µM; that for `CCOC(=O)C1=CCCCC1S(=O)(=O)Nc1ccc(F)cc1C` (centres unmarked) [Compound 46, ethyl 6-[N-(4-fluoro-2-methylphenyl)sulfamoyl]-1-cyclohexene-1-carboxylate], 0.054 µM. Same read-out and setting: the result for `CCOC(=O)C1=CCCCC1S(=O)(=O)Nc1c(Cl)cccc1Cl` (centres unmarked) [Compound 47, ethyl 6-[N-(2,6-dichlorophenyl)sulfamoyl]-1-cyclohexene-1-carboxylate] reads 0.048 µM. Take `CCOC(=O)C1=CCCCC1S(=O)(=O)Nc1ccc(-n2cnnn2)cc1` (centres unmarked) [Compound 48, ethyl 6-[N-[4-(1H-tetrazol-1-yl)phenyl)sulfamoyl]-1-cyclohexene-1-carboxylate]: the IC50 worked out at 3.8 µM.

With `CCOC(=O)C1=CCCCC1S(=O)(=O)Nc1ccc(-n2ccnn2)cc1` (centres unmarked) [Compound 49, ethyl 6-[N-[4-(1H-1,2,3-triazol-1-yl)phenyl)sulfamoyl]-1-cyclohexene-1-carboxylate], the IC50 was 5.6 µM. The same measure, in the same setting: next, `CCOC(=O)C1=CCCCC1S(=O)(=O)Nc1ccccc1C(F)(F)F` (centres unmarked) [Compound 50, ethyl 6-[N-(2-trifluoromethylphenyl)sulfamoyl]-1-cyclohexene-1-carboxylate]: 2 µM; `CCOC(=O)C1=CCCCC1S(=O)(=O)Nc1ccc(C(=O)OC)cc1` (centres unmarked) [Compound 51, ethyl 6-(N-(4-methoxycarbonylphenyl)sulfamoyl]-1-cyclohexene-1-carboxylate]: 4 µM; `O=C(OCc1ccccc1)C1=CCCCC1S(=O)(=O)Nc1ccc(F)cc1F` (centres unmarked) [Compound 52, benzyl 6-[N-(2,4-difluorophenyl)sulfamoyl]-1-cyclohexene-1-carboxylate]: 4.3 µM. On the same count and under the same terms, next, `CCOC(=O)C1=CCCCC1S(=O)(=O)Nc1ccc(CNC(=NC(=O)OC(C)(C)C)NC(=O)OC(C)(C)C)cc1` (centres unmarked) [Compound 53, ethyl 6-[N-[4-[2,3-bis(t-butoxycarbonyl)guanidinomethyl]phenyl]sulfamoyl]-1-cyclohexene-1-carboxylate]: 2.4 µM; `CCOC(=O)C1=CCCCC1S(=O)(=O)Nc1ccc(C(=O)OC)cc1Cl` (centres unmarked) [Compound 54, ethyl 6-[N-(2-chloro-4-methoxycarbonylphenyl)sulfamoyl]-1-cyclohexene-1-carboxylate]: 2.3 µM.

The same assay, now with this note: Mus musculus; RAW264.7; LPS 5 ng/ml + interferon gamma 1 U/ml; nitrite ion in culture supernatant after overnight incubation.
As to `CCOC(=O)C1=CCCCC1S(=O)(=O)Nc1ccccc1CC` (centres unmarked) [Compound 39, ethyl 6-[N-(2-ethylphenyl)sulfamoyl]-1-cyclohexene-1-carboxylate], the IC50 stood at 0.32 µM.
